Experiments:
Assay in all cases: relative viability (nuclei count vs DMSO), 5 days (fraction); higher = more cells survive
Crizotinib + Navitoclax = compound: C[C@@H](Oc1cc(-c2cnn(C3CCNCC3)c2)cnc1N)c1c(Cl)ccc(F)c1Cl [Crizotinib] + CC1(C)CCC(c2ccc(Cl)cc2)=C(CN2CCN(c3ccc(C(=O)NS(=O)(=O)c4ccc(N[C@H](CCN5CCOCC5)CSc5ccccc5)c(S(=O)(=O)C(F)(F)F)c4)cc3)CC2)C1 [Navitoclax] (partner 0.5 µM)
Summary of the method: (§1)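 Nuclei were stained with Hoechst during a one-step fixation (final 0.05% Triton X-100, 1% formaldehyde, 1 ug/ml Hoechst) carried out 5 days after dosing, then counted on 4× images. The cells, lung cancer lines in 1536-well plates, had been dosed by pin tool the day after seeding with one drug alone or a fixed anchor-drug dose plus five library-drug doses (not always all listed) in √10 steps. Relative viability is the nuclei count in treated wells divided by that in vehicle wells, and each value is the median of duplicate plates.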

Carfilzomib + Decitabine = compound: CC(C)C[C@H](NC(=O)[C@H](CCc1ccccc1)NC(=O)CN1CCOCC1)C(=O)N[C@@H](Cc1ccccc1)C(=O)N[C@@H](CC(C)C)C(=O)[C@@]1(C)CO1 [Carfilzomib] + Nc1ncn([C@H]2C[C@H](O)[C@@H](CO)O2)c(=O)n1 [Decitabine] (partner 2 µM)
Summary of the method: as §1

Carfilzomib + Pictilisib = compound: CC(C)C[C@H](NC(=O)[C@H](CCc1ccccc1)NC(=O)CN1CCOCC1)C(=O)N[C@@H](Cc1ccccc1)C(=O)N[C@@H](CC(C)C)C(=O)[C@@]1(C)CO1 [Carfilzomib] + CS(=O)(=O)N1CCN(Cc2cc3nc(-c4cccc5[nH]ncc45)nc(N4CCOCC4)c3s2)CC1 [Pictilisib] (partner 1 µM)
Summary of the method: as §1

Olaparib + Luminespib = compound: O=C(c1cc(Cc2n[nH]c(=O)c3ccccc23)ccc1F)N1CCN(C(=O)C2CC2)CC1 [Olaparib] + CCNC(=O)c1noc(-c2cc(C(C)C)c(O)cc2O)c1-c1ccc(CN2CCOCC2)cc1 [Luminespib] (partner 0.01 µM)
Summary of the method: as §1

Row | Cell Line | relative viability (Crizotinib + Navitoclax; first compound 0.01 µM) | relative viability (Crizotinib + Navitoclax; first compound 0.03162 µM) | relative viability (Crizotinib + Navitoclax; first compound 0.1 µM) | relative viability (Crizotinib + Navitoclax; first compound 1 µM) | relative viability (Carfilzomib + Decitabine; first compound 0.001 µM) | relative viability (Carfilzomib + Decitabine; first compound 0.003162 µM) | relative viability (Carfilzomib + Decitabine; first compound 0.01 µM) | relative viability (Carfilzomib + Decitabine; first compound 0.03162 µM) | relative viability (Carfilzomib + Decitabine; first compound 0.1 µM) | relative viability (Carfilzomib + Pictilisib; first compound 0.001 µM) | relative viability (Carfilzomib + Pictilisib; first compound 0.003162 µM) | relative viability (Carfilzomib + Pictilisib; first compound 0.01 µM) | relative viability (Carfilzomib + Pictilisib; first compound 0.03162 µM) | relative viability (Carfilzomib + Pictilisib; first compound 0.1 µM) | relative viability (Olaparib + Luminespib; first compound 0.08 µM) | relative viability (Olaparib + Luminespib; first compound 0.253 µM) | relative viability (Olaparib + Luminespib; first compound 2.53 µM) | relative viability (Olaparib + Luminespib; first compound 8 µM) | relative viability (Crizotinib + Navitoclax; first compound 0.3162 µM)
1 | NCI-H23 | 0.85 | 0.738 | 0.688 | 0.816 | 0.33 | 0.336 | 0.307 | 0.24 | 0.164 | 0.469 | 0.551 | 0.436 | 0.159 | 0.122 | 0.229 | 0.211 | 0.2 | 0.186 | –
2 | NCI-H322M | 1.07 | 1.12 | 1.19 | 1.3 | 0.621 | 0.756 | 0.615 | 0.718 | 0.505 | 0.491 | 0.507 | 0.567 | 0.538 | 0.307 | 0.98 | 0.821 | 0.906 | 0.527 | 1.13
3 | NCI-H441 | 0.959 | 0.571 | 0.682 | 0.798 | 0.23 | 0.258 | 0.211 | 0.122 | 0.14 | 0.486 | 0.569 | 0.144 | 0.105 | 0.141 | 0.38 | 0.314 | 0.318 | 0.281 | –
4 | NCI-H460 | – | 1.03 | 1.1 | 1.13 | 0.453 | 0.514 | 0.394 | 0.414 | 0.0292 | 0.438 | 0.376 | 0.381 | 0.0673 | 0.0409 | 0.0349 | 0.0392 | 0.0354 | 0.034 | 1.2
5 | NCI-H520 | 1.01 | 1.05 | 1.31 | 1.12 | 0.494 | 0.5 | 0.398 | 0.16 | 0.173 | 0.263 | 0.246 | 0.222 | 0.176 | 0.186 | 0.205 | 0.277 | 0.255 | 0.23 | –
6 | NCI-H596 | 0.845 | – | – | 0.964 | 0.904 | 0.999 | 1.03 | 1.16 | 0.308 | 0.365 | 0.425 | 0.398 | 0.259 | 0.18 | 0.93 | 0.883 | 0.788 | 0.638 | 1
7 | NCI-H647 | 1.01 | 1.21 | 1.03 | 1.06 | 0.365 | 0.321 | 0.274 | 0.049 | 0.0498 | – | 0.562 | 0.397 | 0.0769 | 0.036 | 0.126 | 0.186 | 0.15 | 0.121 | –
8 | NCI-H727 | 0.394 | 0.459 | 0.505 | 0.393 | 0.897 | 0.937 | 0.836 | 0.9 | 0.746 | 0.32 | 0.43 | 0.418 | 0.215 | 0.148 | 0.446 | 0.531 | 0.461 | 0.346 | 0.436
9 | NCI-H838 | 1.14 | 1.14 | 1.16 | 1.13 | 0.437 | 0.498 | 0.434 | 0.27 | 0.178 | 0.487 | 0.525 | 0.449 | 0.615 | 0.144 | 0.332 | 0.218 | 0.229 | 0.219 | 1.19

From the supplement of paper PMC10307832
